Columns and labels:
[1] = test system: IMP dehydrogenase; assay: IMP dehydrogenase activity, L1210; assay type: biochemical, mouse; conditions: 60 min, N=6
Text: CYTOTOXlCITY OF POLY(PHENOLIC)SULFONATES AND THEIR SODIUM SALTS IN L1210 LYMPHOID LEUKEMIA CELLS Fei Wang, Amy E. Warren, Cheryl R. Barnes and Iris H. Hall* Division of Medicinal Chemistry and Natural Products University of North Carolina Chapel Hill, N.C. […] Because ofthese properties it was surmised that these poly(phenolic)sulfonated compounds may have antineoplastic activity. METHODS Source of Compounds Test compounds were supplied by GeneLabs, Inc. [Redwood City, CA [Table 1]. Radioisotopes were obtained from New England Nuclear [Dupont, Boston, MA]. Substrates and co-factors were purchased om Sigma Chemical Co., [St Louis, MO]. Pentosan sulfate and other antineoplastic standards were obtained from Sigma Chemical Co. Tumor lines were obtained from American Type Culture Collection [Rockville, MD]. 147 Vol. 5, No. 3, 1998 Cytotoxicity ofSodium Poly(Phenolic)Sulfonates in L1210 Lymphoid Leukemia Cells Table 1 Structures of Poly(phenolic)sulfonate Compounds O2R" n Compound R' R" n MW # G1-2041 H OH 8 1489.46 G1-2029 H OH 6 1117.09 G1-2030 H OH 4 744.73 GI-2021 CH3 ONa 8 1777.5 G1-2057 CH3 ONa 4 888.75 GI-2158 CH3 ONa 6 1333.13 GI-2063 OCH3 ONa 8 2001.65 G1-2042 OAc ONa 8 2017.73 Cytotoxicity Poly(phenolic)sulfonates were tested for cytotoxic activity by homogenizing drug in 0.05% Tween 80/H20 to give a mg/ml stock concentration. These solutions were sterilized by passing them through an acrodisc ([…]). The following cell lines were maintained by literature techniques: murine L1210 lymphoid leukemia, P-388 lymphocytic leukemia, rat UMR 106 osteosarcoma, human Tmolt3 acute lymphoblastic T cell leukemia, HUT-8 lymphoma, HeLa-S suspended cervical carcinoma, HeLa solid cervical carcinoma, KB epidermoid nasopharynx, A431 epidermoid carcinoma, colorectal adenocarcinoma SW480, HCT-8 ileocecal adenocarcinoma, lung bronchogenic MB-9812, A549 lung carcinoma, and glioma HS683. Geran et al.'s protocol was used to assess the cytotoxicity of the compounds and standards in each cell line. Cell numbers were determined by the trypan blue exclusion technique. Solid tumor cytotoxicity was determined by Leibovitz et al. 's method utilizing crystal violeeOH and read at 562 nm (Molecular Devices). Values for cytotoxicity were expressed as EDs0 g/ml, i.e. the concentration ofthe compound inhibiting 50% ofcell growth. A value of less than 4 µg/ml was required for significant activity ofgrowth inhibition. Incorporation Studies Incorporation of labeled precursors into 3H-DNA, 3H -RNA and 3H -protein for 10 L1210 cells was obtained. The concentration response for inhibition of DNA, RNA and protein synthesis of the compounds at 25, 50 and 100 l.tM was determined for 60 min incubations. Incorporation of 14C -glycine (53.0 mCi/mmol) into purines was obtained by the method of Cadman et al.[12]. Incorporation of 4C- formate (53.0 mCi/mmol) into pyrimidines was determined by the method of Christopherson et al.[13]. […] DNA polymerase Ot activity was determined in cytoplasmic extracts isolated by Eichler et aL's method. […] Messenger-, ribosomal- and transfer-RNA polymerase enzymes were isolated with different concentrations of ammonium sulfate; individual RNA polymerase activities were determined using 3H -UTP 16,17]. Ribonucleoside reductase activity was measured using 4C -CDP with dithioerythritol. […]

[2] = target: T1, Thymidylate synthetase (Mus musculus, UniProt P07607); assay: Thymidylate synthetase activity, L1210; assay type: biochemical; conditions: 60 min, N=6
T1 construct: preparing the appropriate L1210 cell homogenates or subcellular fractions; endogenous in cells; host or cells: L1210 murine lymphoid leukemia cells, homogenate or subcellular fraction
Text: (§1) CYTOTOXlCITY OF POLY(PHENOLIC)SULFONATES AND THEIR SODIUM SALTS IN L1210 LYMPHOID LEUKEMIA CELLS Fei Wang, Amy E. Warren, Cheryl R. Barnes and Iris H. Hall* Division of Medicinal Chemistry and Natural Products University of North Carolina Chapel Hill, N.C. […] Because ofthese properties it was surmised that these poly(phenolic)sulfonated compounds may have antineoplastic activity. METHODS Source of Compounds Test compounds were supplied by GeneLabs, Inc. [Redwood City, CA [Table 1]. Radioisotopes were obtained from New England Nuclear [Dupont, Boston, MA]. Substrates and co-factors were purchased om Sigma Chemical Co., [St Louis, MO]. Pentosan sulfate and other antineoplastic standards were obtained from Sigma Chemical Co. Tumor lines were obtained from American Type Culture Collection [Rockville, MD]. 147 Vol. 5, No. 3, 1998 Cytotoxicity ofSodium Poly(Phenolic)Sulfonates in L1210 Lymphoid Leukemia Cells Table 1 Structures of Poly(phenolic)sulfonate Compounds O2R" n Compound R' R" n MW # G1-2041 H OH 8 1489.46 G1-2029 H OH 6 1117.09 G1-2030 H OH 4 744.73 GI-2021 CH3 ONa 8 1777.5 G1-2057 CH3 ONa 4 888.75 GI-2158 CH3 ONa 6 1333.13 GI-2063 OCH3 ONa 8 2001.65 G1-2042 OAc ONa 8 2017.73 Cytotoxicity Poly(phenolic)sulfonates were tested for cytotoxic activity by homogenizing drug in 0.05% Tween 80/H20 to give a mg/ml stock concentration. These solutions were sterilized by passing them through an acrodisc ([…]). The following cell lines were maintained by literature techniques: murine L1210 lymphoid leukemia, P-388 lymphocytic leukemia, rat UMR 106 osteosarcoma, human Tmolt3 acute lymphoblastic T cell leukemia, HUT-8 lymphoma, HeLa-S suspended cervical carcinoma, HeLa solid cervical carcinoma, KB epidermoid nasopharynx, A431 epidermoid carcinoma, colorectal adenocarcinoma SW480, HCT-8 ileocecal adenocarcinoma, lung bronchogenic MB-9812, A549 lung carcinoma, and glioma HS683. Geran et al.'s protocol was used to assess the cytotoxicity of the compounds and standards in each cell line. Cell numbers were determined by the trypan blue exclusion technique. Solid tumor cytotoxicity was determined by Leibovitz et al. 's method utilizing crystal violeeOH and read at 562 nm (Molecular Devices). Values for cytotoxicity were expressed as EDs0 g/ml, i.e. the concentration ofthe compound inhibiting 50% ofcell growth. A value of less than 4 µg/ml was required for significant activity ofgrowth inhibition. Incorporation Studies Incorporation of labeled precursors into 3H-DNA, 3H -RNA and 3H -protein for 10 L1210 cells was obtained. The concentration response for inhibition of DNA, RNA and protein synthesis of the compounds at 25, 50 and 100 l.tM was determined for 60 min incubations. Incorporation of 14C -glycine (53.0 mCi/mmol) into purines was obtained by the method of Cadman et al.[12]. Incorporation of 4C- formate (53.0 mCi/mmol) into pyrimidines was determined by the method of Christopherson et al.[13]. Enzyme Assays Inhibition of various enzyme activities was performed by first preparing the appropriate L1210 cell homogenates or subcellular fractions, then adding the drug to be tested during the enzyme assay. For the concentration response studies, inhibition of enzyme activity was determined at 25, 50 and 100 l.tM of compounds G1-2021, G1-2029, GI-2041 and G1-2063 after 60 min incubations. DNA polymerase Ot activity was determined in cytoplasmic extracts isolated by Eichler et aL's method. The DNA polymerase assay was described by Sedwick et al.[15] using 3H-TTP. Messenger-, ribosomal- and transfer-RNA polymerase enzymes were isolated with different concentrations of ammonium sulfate; individual RNA polymerase activities were determined using 3H -UTP 16,17]. Ribonucleoside reductase activity was measured using 4C -CDP with dithioerythritol. The deoxyribonucleotides 4C -dCDP were separated from the ribonucleotides by TLC on PEI plates. […]

[3] = test system: murine L1210 lymphoid leukemia; assay type: cell-based, mouse
Text: as §1

[4] = target: T2, Carbamyl phosphate synthetase (Mus musculus, UniProt B2RQC6); assay: Carbamyl phosphate synthetase activity, L1210; assay type: biochemical; conditions: 60 min, N=6
T2 construct: preparing the appropriate L1210 cell homogenates or subcellular fractions; endogenous in cells; host or cells: L1210 murine lymphoid leukemia cells, homogenate or subcellular fraction
Text: as §1

[5] = test system: L1210 DNA; assay: L1210 DNA strand scission, alkaline-sucrose gradient; assay type: cell-based, mouse; conditions: 100 μM, 24 hr
Text: (§2) CYTOTOXlCITY OF POLY(PHENOLIC)SULFONATES AND THEIR SODIUM SALTS IN L1210 LYMPHOID LEUKEMIA CELLS Fei Wang, Amy E. Warren, Cheryl R. Barnes and Iris H. Hall* Division of Medicinal Chemistry and Natural Products University of North Carolina Chapel Hill, N.C. […] Because ofthese properties it was surmised that these poly(phenolic)sulfonated compounds may have antineoplastic activity. METHODS Source of Compounds Test compounds were supplied by GeneLabs, Inc. [Redwood City, CA [Table 1]. Radioisotopes were obtained from New England Nuclear [Dupont, Boston, MA]. Substrates and co-factors were purchased om Sigma Chemical Co., [St Louis, MO]. […] Cell numbers were determined by the trypan blue exclusion technique. Solid tumor cytotoxicity was determined by Leibovitz et al. 's method utilizing crystal violeeOH and read at 562 nm (Molecular Devices). Values for cytotoxicity were expressed as EDs0 g/ml, i.e. the concentration ofthe compound inhibiting 50% ofcell growth. […] Incorporation of 4C- formate (53.0 mCi/mmol) into pyrimidines was determined by the method of Christopherson et al.[13]. […] DNA polymerase Ot activity was determined in cytoplasmic extracts isolated by Eichler et aL's method. […] Messenger-, ribosomal- and transfer-RNA polymerase enzymes were isolated with different concentrations of ammonium sulfate; individual RNA polymerase activities were determined using 3H -UTP 16,17]. […]

[6] = target: T3, mRNA polymerase (Mus musculus, UniProt P08775); assay: Messenger-RNA polymerase activity, L1210; assay type: biochemical; conditions: 100 μM, 60 min, N=6
T3 construct: Messenger-, ribosomal- and transfer-RNA polymerase enzymes were isolated with different concentrations of ammonium sulfate; endogenous in cells; host or cells: L1210 murine lymphoid leukemia cells, ammonium sulfate fraction
Text: as §2, with “MO]. Pentosan sulfate and other antineoplastic standards were obtained from Sigma Chemical Co. Tumor lines were obtained from American Type Culture Collection [Rockville, MD].” for “MO].”, “16,17]. Ribonucleoside reductase activity was measured using 4C -CDP with dithioerythritol.” for “16,17].”

[7] = target: T4, Dihydrofolate reductase (Mus musculus, UniProt P00375); assay: Dihydrofolate reductase activity, L1210; assay type: biochemical; conditions: 60 min, N=6
T4 construct: preparing the appropriate L1210 cell homogenates or subcellular fractions; endogenous in cells; host or cells: L1210 murine lymphoid leukemia cells, homogenate or subcellular fraction
T4 sequence (P00375 1-187): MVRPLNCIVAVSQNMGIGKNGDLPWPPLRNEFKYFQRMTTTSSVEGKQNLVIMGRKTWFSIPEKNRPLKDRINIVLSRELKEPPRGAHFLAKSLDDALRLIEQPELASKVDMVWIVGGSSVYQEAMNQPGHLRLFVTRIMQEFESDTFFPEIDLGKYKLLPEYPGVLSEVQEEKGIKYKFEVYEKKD
Text: as §1

[8] = test system: Thymidine kinase; assay: Thymidine kinase activity, L1210; assay type: biochemical, mouse; conditions: 60 min, N=6
Text: as §1

[9] = target: T5, Aspartate transcarbamylase (Mus musculus, UniProt B2RQC6); assay: Aspartate transcarbamylase activity, L1210; assay type: biochemical; conditions: 60 min, N=6
T5 construct: preparing the appropriate L1210 cell homogenates or subcellular fractions; endogenous in cells; host or cells: L1210 murine lymphoid leukemia cells, homogenate or subcellular fraction
Text: as §1

[10] = target: T6, DNA polymerase α (Mus musculus, UniProt P33609); assay: DNA polymerase alpha activity, L1210 cytoplasmic extracts; assay type: biochemical; conditions: for DNA polymerase α: 60 min, N=6
T6 construct: endogenous in cells; host or cells: L1210 murine lymphoid leukemia cells, cytoplasmic extract
Text: as §1

T5 sequence (B2RQC6 whole entry): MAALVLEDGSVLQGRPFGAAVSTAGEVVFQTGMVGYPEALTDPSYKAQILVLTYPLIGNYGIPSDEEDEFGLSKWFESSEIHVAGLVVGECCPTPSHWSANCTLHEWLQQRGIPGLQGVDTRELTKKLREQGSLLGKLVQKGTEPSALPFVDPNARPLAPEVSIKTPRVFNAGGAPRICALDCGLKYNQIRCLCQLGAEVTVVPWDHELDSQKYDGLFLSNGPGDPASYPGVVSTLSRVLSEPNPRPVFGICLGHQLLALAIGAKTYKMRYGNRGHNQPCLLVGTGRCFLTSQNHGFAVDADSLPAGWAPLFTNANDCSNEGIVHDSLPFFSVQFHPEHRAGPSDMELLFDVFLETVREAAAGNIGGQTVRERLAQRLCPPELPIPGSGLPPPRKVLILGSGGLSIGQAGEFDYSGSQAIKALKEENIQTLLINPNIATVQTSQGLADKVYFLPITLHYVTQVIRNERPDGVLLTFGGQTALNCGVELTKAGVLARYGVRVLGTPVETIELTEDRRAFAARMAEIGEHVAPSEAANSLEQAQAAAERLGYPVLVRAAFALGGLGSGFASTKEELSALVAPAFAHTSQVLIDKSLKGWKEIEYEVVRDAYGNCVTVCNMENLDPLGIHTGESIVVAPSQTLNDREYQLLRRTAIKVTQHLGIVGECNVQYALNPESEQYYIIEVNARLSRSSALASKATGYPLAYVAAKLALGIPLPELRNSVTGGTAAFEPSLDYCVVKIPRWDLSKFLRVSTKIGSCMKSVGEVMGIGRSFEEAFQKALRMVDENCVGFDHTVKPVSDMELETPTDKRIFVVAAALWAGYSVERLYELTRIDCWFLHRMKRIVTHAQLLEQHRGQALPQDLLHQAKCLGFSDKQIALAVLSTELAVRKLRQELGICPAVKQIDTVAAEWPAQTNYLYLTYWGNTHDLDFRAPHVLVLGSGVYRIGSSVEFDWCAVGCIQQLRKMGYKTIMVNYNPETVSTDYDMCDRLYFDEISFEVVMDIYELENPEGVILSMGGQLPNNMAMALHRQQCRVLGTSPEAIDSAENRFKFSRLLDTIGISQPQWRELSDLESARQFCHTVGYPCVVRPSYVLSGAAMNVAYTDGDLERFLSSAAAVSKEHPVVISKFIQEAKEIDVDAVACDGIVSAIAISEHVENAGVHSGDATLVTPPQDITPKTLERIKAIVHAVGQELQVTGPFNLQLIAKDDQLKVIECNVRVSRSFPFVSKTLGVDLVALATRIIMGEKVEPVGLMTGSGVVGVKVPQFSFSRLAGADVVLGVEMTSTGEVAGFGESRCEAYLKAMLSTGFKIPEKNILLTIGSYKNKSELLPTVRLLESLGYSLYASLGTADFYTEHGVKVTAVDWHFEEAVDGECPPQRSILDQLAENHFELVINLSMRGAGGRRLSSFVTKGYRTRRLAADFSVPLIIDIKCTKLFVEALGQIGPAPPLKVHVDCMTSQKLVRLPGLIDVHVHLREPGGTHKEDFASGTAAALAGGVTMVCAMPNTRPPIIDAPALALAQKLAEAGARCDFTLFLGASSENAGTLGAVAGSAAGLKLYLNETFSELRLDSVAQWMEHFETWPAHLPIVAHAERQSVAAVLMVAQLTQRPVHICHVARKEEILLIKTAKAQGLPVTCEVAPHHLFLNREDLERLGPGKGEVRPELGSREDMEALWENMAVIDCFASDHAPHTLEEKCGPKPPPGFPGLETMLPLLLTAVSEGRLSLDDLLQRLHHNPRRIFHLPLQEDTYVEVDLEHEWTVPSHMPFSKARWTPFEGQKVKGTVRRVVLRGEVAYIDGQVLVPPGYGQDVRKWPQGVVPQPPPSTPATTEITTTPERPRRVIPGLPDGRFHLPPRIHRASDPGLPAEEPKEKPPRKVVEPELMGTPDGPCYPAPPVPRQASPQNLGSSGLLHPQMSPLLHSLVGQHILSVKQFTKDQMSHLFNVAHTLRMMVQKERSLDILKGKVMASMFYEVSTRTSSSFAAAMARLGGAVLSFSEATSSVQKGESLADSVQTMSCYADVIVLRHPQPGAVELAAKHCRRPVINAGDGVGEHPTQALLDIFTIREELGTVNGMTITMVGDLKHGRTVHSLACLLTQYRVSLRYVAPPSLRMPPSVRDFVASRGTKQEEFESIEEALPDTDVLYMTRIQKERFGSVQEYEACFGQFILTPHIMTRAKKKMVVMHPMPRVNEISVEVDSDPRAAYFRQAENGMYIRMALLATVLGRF
T1 sequence (P07607 whole entry): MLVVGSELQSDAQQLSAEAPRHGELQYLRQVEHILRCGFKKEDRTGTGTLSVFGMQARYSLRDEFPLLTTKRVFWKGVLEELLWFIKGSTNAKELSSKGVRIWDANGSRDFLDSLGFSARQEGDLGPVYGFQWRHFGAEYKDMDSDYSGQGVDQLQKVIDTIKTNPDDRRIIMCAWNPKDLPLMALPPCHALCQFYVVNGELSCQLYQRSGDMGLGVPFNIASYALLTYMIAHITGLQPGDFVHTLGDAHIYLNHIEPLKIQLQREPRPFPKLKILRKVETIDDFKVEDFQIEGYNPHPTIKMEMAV
T2 sequence (B2RQC6 whole entry): as the sequence (B2RQC6 whole entry) above

For `O=S(=O)(O)c1cc2c(O)c(c1)Cc1cc(S(=O)(=O)O)cc(c1O)Cc1cc(S(=O)(=O)O)cc(c1O)Cc1cc(S(=O)(=O)O)cc(c1O)Cc1cc(S(=O)(=O)O)cc(c1O)Cc1cc(S(=O)(=O)O)cc(c1O)C2` [GI-2029], the IMP dehydrogenase ([1]; 25 μM) was 270+5% of Control, the IMP dehydrogenase ([1]; 50 μM) was 184+6% of Control and the Thymidylate synthetase ([2]; 25 μM) was 92+5% of Control. The Thymidylate synthetase ([2]; 50 μM) was 89+6% of Control, the “cytotoxic activity, in words” value [3] was “most potent activity” and the “ED50 converted to” value ([3]; converted from μg/ml) was 1362 nM. For the same compound, the Carbamyl phosphate synthetase ([4]; 25 μM) was 78+5% of Control, the Carbamyl phosphate synthetase ([4]; 100 μM) was 72+3% of Control and the “L1210 DNA fragmentation, in words” value [5] was “more moderated”. The mRNA polymerase [6] was 50+3% of Control, the Dihydrofolate reductase ([7]; 50 μM) was 108+5% of Control and the Dihydrofolate reductase ([7]; 100 μM) was 127+6% of Control. The Thymidine kinase ([8]; 25 μM) was 105+6% of Control, the Thymidine kinase ([8]; 50 μM) was 104+6% of Control and the Aspartate transcarbamylase ([9]; 25 μM) was 100+5% of Control. For the same compound, the Aspartate transcarbamylase ([9]; 50 μM) was 100+5% of Control, the Aspartate transcarbamylase ([9]; 100 μM) was 98+6% of Control and the “DNA polymerase α” value ([10]; 25 μM) was 70+3% of Control. The “DNA polymerase activity time course, in words” value ([10]; 50 μM over 2 hr) was “activity remained suppressed at 60 and 90 min”, the “DNA polymerase α” value ([10]; 50 μM) was 60+3% of Control and the “DNA polymerase α” value ([10]; 100 μM) was 44+3% of Control.
